Assays:
IRAK4 = biological target: T1, IRAK4 (Homo sapiens, UniProt Q9NWZ3); experiment: IRAK4 Inhibition Assay; type: biochemical; settings: ATP 500 μM, IRAK4 0.6 nM, 60 min room temperature, Caliper LABCHIP 3000
T1 sequence (Q9NWZ3 1-460): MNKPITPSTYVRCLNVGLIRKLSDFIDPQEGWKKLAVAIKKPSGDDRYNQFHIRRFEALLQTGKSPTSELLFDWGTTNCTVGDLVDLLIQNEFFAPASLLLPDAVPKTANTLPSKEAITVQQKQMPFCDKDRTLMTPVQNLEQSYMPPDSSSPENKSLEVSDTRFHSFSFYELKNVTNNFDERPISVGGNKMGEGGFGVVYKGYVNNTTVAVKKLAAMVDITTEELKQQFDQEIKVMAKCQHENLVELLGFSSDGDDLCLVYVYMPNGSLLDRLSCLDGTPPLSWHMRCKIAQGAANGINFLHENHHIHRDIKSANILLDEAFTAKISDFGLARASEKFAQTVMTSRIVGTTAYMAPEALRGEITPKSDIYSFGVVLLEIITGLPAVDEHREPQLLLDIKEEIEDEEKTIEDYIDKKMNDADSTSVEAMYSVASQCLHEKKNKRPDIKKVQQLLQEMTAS
Description: The assays were performed in U-bottom 384-well plates. […] The reaction was initiated by the combination of IRAK4 with substrates and test compounds. The reaction mixture was incubated at room temperature for 60 min. and terminated by adding 45 μL of 35 mM EDTA to each sample. The reaction mixture was analyzed on the Caliper LABCHIP® 3000 (Caliper, Hopkinton, MA) by electrophoretic separation of the fluorescent substrate and phosphorylated product. […] The final concentrations of reagents in the assays are ATP, 500 μM; FL-[…] peptide 1.5 μM; IRAK4, 0.6 nM; and DMSO, 1.6%.

[1] = tested on: Human whole blood, IL-6 levels after TLR2 agonist lipoteichoic acid; experiment: IRAK4 Whole Blood Assay; type: cell-based; settings: compounds 60 minutes at 37° C., lipoteichoic acid 10 μg/mL for 5 hours
Description: IRAK4 Whole Blood Assay Human whole blood containing the anti-coagulant ACD-A was plated in 384-well plate (25 μL/well) and incubated with compounds for 60 minutes at 37° C. in a 5% CO2 incubator. The blood was stimulated with a TLR2 agonist, 10 μg/mL final concentration of lipoteichoic acid (Invivogen, San Diego, CA) in 25 μL RPMI (Gibco) for 5 hours in a 5% CO2 incubator. At the end of the incubation, plates were centrifuged at 2300 rpm for 5 minutes. Supernatants were harvested and analyzed for IL-6 levels by Flow Cytometry beads assay (BD Biosciences, San Jose, CA).

[2] = FL-IPTSPITTTYFFFKKK peptide […]

Row | IC50 (IRAK4; [2]) [µM] | IC50 [1] [µM] | IC50 (IRAK4; FL-[…] peptide 1.5 μM) [µM] | Compound
1 | 0.518 | – | – | CC[C@H]1[C@@H](COc2cccc3cc(C(N)=O)c4nccn4c23)NC(=O)[C@@]1(C)F [Example 6, 9-(((2S,3 S,4S)-3-ethyl-4-fluoro-4-methyl-5-oxopyrrolidin-2-yl)methoxy)imidazo[1,2-a]quinoline-4-carboxamide]
2 | 0.0206 | 1.42 | – | NC(=O)c1cc2cccc(OC[C@@H]3CCC(=O)N3)c2n2ccnc12 [Example 1, (S)-9-((5-oxopyrrolidin-2-yl)methoxy)imidazo[1,2-a]quinoline-4-carboxamide]
3 | 0.0097 | 1.46 | – | CC[C@@H]1CC(=O)N[C@@H]1COC1=CC(F)=CC2C=C(C(N)=O)c3nccn3C12 (stereo partly drawn) [Example 57, 9-(((2S,3R)-3-ethyl-5-oxopyrrolidin-2-yl)methoxy)-7-fluoro-5a,9a-dihydroimidazo[1,2-a]quinoline-4-carboxamide]
4 | 0.0944 | – | – | CC[C@@H]1[C@H](F)C(=O)N[C@@H]1COC1=CC=CC2C(NC)=C(C(N)=O)c3nccn3C12 (stereo partly drawn) [Example 61, 9-(((2S,3S,4S)-3-ethyl-4-fluoro-5-oxopyrrolidin-2-yl)methoxy)-5-(methylamino)-5a,9a-dihydroimidazo[1,2-a]quinoline-4-carboxamide]
5 | 0.0603 | – | – | CC[C@@H]1[C@H](F)C(=O)N[C@@H]1COc1cccc2cc(C(N)=O)c3ncnn3c12 [Example 38, 9-(((2S,3S,4S)-3-ethyl-4-fluoro-5-oxopyrrolidin-2-yl)methoxy)-[1,2,4]triazolo[1,5-a]quinoline-4-carboxamide]
6 | 1.82 | – | – | NC(=O)c1cc2ccnc(OC[C@@H]3CNC(=O)N3)c2n2ccnc12 [Example 27, (S)-1-((2-oxoimidazolidin-4-yl)methoxy)imidazo[1,2-a][1,7]naphthyridine-6-carboxamide]
7 | 1.93 | – | – | CC[C@H]1OCC(=O)N[C@H]1COc1nccc2cc(C(N)=O)c3nccn3c12 [Example 25, 1-(((2R,3S)-2-ethyl-5-oxomorpholin-3-yl)methoxy)imidazo[1,2-a][1,7]naphthyridine-6-carboxamide]
8 | 0.0017 | 0.152 | – | CC[C@H]1CC(=O)N[C@@H]1COc1cccc2cc(C(N)=O)c3nccn3c12 [Example 3, 9-(((2S,3S)-3-ethyl-5-oxopyrrolidin-2-yl)methoxy)imidazo[1,2-a]quinoline-4-carboxamide]
9 | 0.0781 | – | – | CC[C@@H]1[C@H](F)C(=O)N[C@@H]1COc1nccc2cc(C(N)=O)c3ncnn3c12 [Example 47, 9-(((2S,3S,4S)-3-ethyl-4-fluoro-5-oxopyrrolidin-2-yl)methoxy)-[1,2,4]triazolo[1,5-a][1,7]naphthyridine-4-carboxamide]
10 | 0.0197 | 20 | – | CC[C@@H]1CC(=O)N[C@@H]1COc1nccc2cc(C(N)=O)c3nc(C)cn3c12 [Example 18, 1-(((2S,3R)-3-ethyl-5-oxopyrrolidin-2-yl)methoxy)-8-methylimidazo[1,2-a][1,7]naphthyridine-6-carboxamide]
11 | 1.43 | – | – | CC[C@@H]1[C@H](F)C(=O)N[C@@H]1COc1cccc2cc(C(N)=O)c3nc(C(C)(C)O)cn3c12 [Example 13, 9-(((2S,3S,4S)-3-ethyl-4-fluoro-5-oxopyrrolidin-2-yl)methoxy)-2-(2-hydroxypropan-2-yl)imidazo[1,2-a]quinoline-4-carboxamide]
12 | 0.601 | – | – | CC[C@@H]1CC(=O)N[C@@H]1COc1nc(C)cc2cc(C(N)=O)c3nc(C)cn3c12 [Example 29, 1-(((2S,3R)-3-ethyl-5-oxopyrrolidin-2-yl)methoxy)-3,8-dimethylimidazo[1,2-a][1,7]naphthyridine-6-carboxamide]
13 | 0.0162 | – | – | CC[C@@H]1[C@H](F)C(=O)N[C@@H]1COc1cccc2cc(C(N)=O)c3nncn3c12 [Example 43, 9-(((2S,3S,4S)-3-ethyl-4-fluoro-5-oxopyrrolidin-2-yl)methoxy)-[1,2,4]triazolo[4,3-a]quinoline-4-carboxamide]
14 | 0.0391 | – | – | CC[C@@H]1[C@H](F)C(=O)N[C@@H]1COc1cccc2cc(C(N)=O)c3nc(C)nn3c12 [Example 40, 9-(((2S,3S,4S)-3-ethyl-4-fluoro-5-oxopyrrolidin-2-yl)methoxy)-2-methyl-[1,2,4]triazolo[1,5-a]quinoline-4-carboxamide]
15 | 0.176 | – | – | CC[C@@H]1OC(=O)N[C@H]1COc1nccc2cc(C(N)=O)c3nccn3c12 [Example 24, 1-(((4S,5S)-5-ethyl-2-oxooxazolidin-4-yl)methoxy)imidazo[1,2-a][1,7]naphthyridine-6-carboxamide]
16 | 0.0804 | – | – | CC[C@@H]1OCC(=O)N[C@@H]1COc1nccc2cc(C(N)=O)c3nccn3c12 [Example 26, 1-(((2S,3R)-2-ethyl-5-oxomorpholin-3-yl)methoxy)imidazo[1,2-a][1,7]naphthyridine-6-carboxamide]
17 | 0.35 | – | – | CC[C@@H]1CC(=O)N[C@@H]1COC1=CC=CC2C=C(C#N)c3nccn3C12 (stereo partly drawn) [Example 60, 9-(((2S,3R)-3-ethyl-5-oxopyrrolidin-2-yl)methoxy)-5a,9a-dihydroimidazo[1,2-a]quinoline-4-carbonitrile]
18 | 0.0422 | – | – | CC[C@@H]1CC(=O)N[C@@H]1COc1cccc2cc(C(N)=O)c3nncn3c12 [Example 41, 9-(((2S,3R)-3-ethyl-5-oxopyrrolidin-2-yl)methoxy)-[1,2,4]triazolo[4,3-a]quinoline-4-carboxamide]
19 | 0.07 | – | – | CC[C@@H]1[C@H](F)C(=O)N[C@@H]1COc1cccc2cc(C(N)=O)c3nnnn3c12 [Example 45, 9-(((2S,3S,4S)-3-ethyl-4-fluoro-5-oxopyrrolidin-2-yl)methoxy)tetrazolo[1,5-a]quinoline-4-carboxamide]
20 | 0.062 | – | – | CC[C@@H]1[C@H](F)C(=O)N(CO)[C@@H]1COc1nccc2cc(C(N)=O)c3nccn3c12 [Example 32]
21 | 0.29 | – | – | CC[C@H]1CC(=O)N[C@@H]1COc1cccc2cc(C(N)=O)c3nncn3c12 [Example 42, 9-(((2S,3S)-3-ethyl-5-oxopyrrolidin-2-yl)methoxy)-[1,2,4]triazolo[4,3-a]quinoline-4-carboxamide]
22 | 0.243 | – | – | NC(=O)c1cc2cccc(OC[C@H]3COCC(=O)N3)c2n2ccnc12 [Example 7, (R)-9-((5-oxomorpholin-3-yl)methoxy)imidazo[1,2-a]quinoline-4-carboxamide]
23 | – | – | 1.72 | CC[C@@H]1CC(=O)N[C@@H]1COc1nccc2cc(C(N)=O)c3nc(C(F)(F)F)cn3c12 [Example 30, 1-(((2S,3R)-3-ethyl-5-oxopyrrolidin-2-yl)methoxy)-8-(trifluoromethyl)imidazo[1,2-a][1,7]naphthyridine-6-carboxamide]
24 | 0.0022 | – | – | CC[C@@H]1[C@H](F)C(=O)N[C@@H]1COc1nccc2cc(C(N)=O)c3c(c12)CC(C)(C)O3 [Example 63, 1-(((2S,3S,4S)-3-ethyl-4-fluoro-5-oxopyrrolidin-2-yl)methoxy)-8,8-dimethyl-8,9-dihydrofuro[2,3-h]isoquinoline-6-carboxamide]
25 | 0.112 | – | – | CC[C@@H]1CC(=O)N[C@@H]1COC1=C(F)C=CC2C=C(C(N)=O)c3nccn3C12 (stereo partly drawn) [Example 59, 9-(((2S,3R)-3-ethyl-5-oxopyrrolidin-2-yl)methoxy)-8-fluoro-5a,9a-dihydroimidazo[1,2-a]quinoline-4-carboxamide]
26 | 0.225 | – | – | CC[C@@H]1CC(=O)N[C@@H]1COc1nc(C)cc2cc(C(N)=O)c3nccn3c12 [Example 28, 1-(((2S,3R)-3-ethyl-5-oxopyrrolidin-2-yl)methoxy)-3-methylimidazo[1,2-a][1,7]naphthyridine-6-carboxamide]
27 | 0.262 | – | – | CC[C@H]1OC(=O)N[C@H]1COc1nccc2cc(C(N)=O)c3nccn3c12 [Example 23, 1-(((4S,5R)-5-ethyl-2-oxooxazolidin-4-yl)methoxy)imidazo[1,2-a][1,7]naphthyridine-6-carboxamide]
28 | 1.06 | – | – | CC[C@H]1CC(=O)N[C@@H]1COc1nccc2cc(C(N)=O)c3nc(C(F)(F)F)cn3c12 [Example 31, 1-(((2S,3S)-3-ethyl-5-oxopyrrolidin-2-yl)methoxy)-8-(trifluoromethyl)imidazo[1,2-a][1,7]naphthyridine-6-carboxamide]

Row | Compound | IC50 (IRAK4; [2]) [µM] | IC50 [1] [µM] | IC50 (IRAK4; FL-[…] peptide 1.5 μM) [µM]
29 | 1-(((2S,3S,4S)-3-ethyl-4-fluoro-5-oxotetrahydrofuran-2-yl)methoxy)-8-methyl-8,9-dihydrofuro[2,3-h]isoquinoline-6-carboxamide [Example 52] | 0.0013 | – | –

From US12286428B2 (BRISTOL-MYERS SQUIBB COMPANY, priority 2019, dated 2025)
